Patent publication US20210244720A1, “Therapeutic Tyrosine Kinase Inhibitors for Relapsing Multiple Sclerosis (RMS)” (Genzyme Corporation, priority 2020, published 2021)

Experiments:
CD19+ B-cell counts = experiment: Phase 1 absolute CD19+ B-cell counts
Description: Dose regimen: The dose range chosen for this study is informed by several assessments.

[1] = test system: RGS1 and BTK-dependent gene signature in primary mouse microglial cells; conditions: 2.5 μM, IgG 50 μg/mL, 24 h, FPKM
Description: Primary cultures of microglia were obtained from brains of C57BL/6 postnatal mice. The mice were anesthetized with CO2 and subsequently decapitated with sterilized scissors. Brains were harvested and meninges were removed. The brains were placed in ice cold complete DMEM/F12 medium and kept on ice until processing.
The brains were removed from the medium by filtering through a 40 μm cell strainer. […] The dissociation reaction was quenched with an equal volume of complete DMEM/F12. The tissue was centrifuged at 300×g for 7 minutes. The tissue pellet was washed 3 times with complete DMEM/F12, centrifuged at 300×g for 7 minutes. After the final wash, tissue pellet was re-suspended in complete DMEM/F12 (˜1 mL/brain), triturated until no chunks are visible, then filtered through a 70 μm cell strainer. […]
The single cell suspensions were filtered through 70 μm cell strainers, centrifuged at 200×g for 6 minutes, and re-suspended at 1×10^8 cells/mL in separation media. […] After the last wash, the labeled CD11b+ microglia cells were resuspended in serum free NbActiv1 media, counted and re-suspended at the desired concentration. […]
Analysis of the RNASeq library data was conducted within Omicsoft's Array Studio platform following a standard RNAseq protocol. In general, the sequencing reads were quality checked and the samples were mapped to the mouse mm10 reference genome using the ENSEMBL.R89 gene model. […]

RGS1 mRNA in brain = experiment: In vivo mouse study, brain RGS1 Real-time PCR; conditions: naive mice, oral, once a day for 5 days, 0.6, 6, and 24 mg/kg
Protocol: Mice were sacrificed on day 5, 1 h post-final dose, and PBS perfused before brain was isolated. RNA was isolated from brain using the Rneasy Lipid tissue RNA isolation kid (Qiagen). RGS1 was quantified using Real-time PCR and Taqman probe (FIG. 6; one-way ANOVA, **p<0.01).

`C=CC(=O)N1CCC[C@@H](n2c(=O)n(-c3ccc(Oc4ccccc4)cc3)c3c(N)nccc32)C1` [the BTK inhibitor, (R)-1-(1-acryloylpiperidin-3-yl)-4-amino-3-(4-phenoxyphenyl)-1H-imidazo[4,5-c]pyridin-2(3H)-one] was tested. Which “dose at which the dose-response relationship for the CD19+ B-cell increase is maximal” value (CD19+ B-cell counts) did it give?
Its value is “approximately 30 mg once daily”.

What about the “RGS1 mRNA expression upregulated with IgG treatment” value [1] of the same compound?
Its value is “blocked”.

And the “RGS1 mRNA expression in brain” value (RGS1 mRNA in brain)?
Its value is “reduction of RGS1 mRNA expression was observed”.
